Results taken from patent US12569170B2, “Paramagnetic sodium NMR macrocyclic-based biosensors, and associated methods” (Yale University, priority 2021, dated 2026).
Values joined by “and” are separate entries in the source; they are usually repeats but may differ in a detail not shown here. Equal values may be shown once.

Legend:
[1] = Effect of cation competition on ^23Na chemical shift and linewidth in vitro; format: physicochemical; conditions: for ^23Na chemical shift / ^23Na linewidth: 150 mM NaCl
Description: FIGS. 13A-13C depicts effect of cation competition on ^23Na chemical shift and linewidth induced by 2 mM TmDOTP^5−. (FIG. 13A)^23Na NMR spectra for 150 mM NaCl solutions containing 2 mM TmDOTP^5− alone, and in the presence of 2 mM Ca^2+, 2 mM Mg^2+, 10 mM K^+, and all three of these ions. Ca^2+, Mg^2+, and K^+ were introduced as the salts CaCl2, MgCl2, and KBr, respectively. These concentrations were all chosen to represent physiological concentrations in the interstitial space. […] Chemical shift ranged between 2.433 ppm (FIG. 13B, alone) and 2.352 ppm (FIG. 13B, all), representing only a 3% change in the presence of all competing cations. Linewidth ranged between 0.2433 ppm (FIG. 13C, alone) and 0.2285 ppm (FIG. 13C, all), representing only a 6% change in the presence of all competing cations.
Upon translation of the present in vitro results to in vivo situations, certain confounding factors must be addressed. In the interstitial space, there are additional cations such as calcium (Ca^2+), magnesium (Mg^2+) and K^+ which will also bind to anionic contrast agents like TmDOTP^5−. However, physiologically their concentrations are low compared to Na^+. […] Additionally, there is a contribution to the chemical shift from bulk magnetic susceptibility (BMS) changes brought about by TmDOTP^5− in addition to the hyperfine shifts induced by interactions with Na^+. Experiments were performed on different DOTP^8− salts in phantoms parallel and perpendicular to the main magnetic field B0, and also spherical phantoms in which there was no BMS contribution. Only a small portion (˜2%) of the total chemical shift for TmDOTP^5− was due to BMS arising due to anisotropy of the paramagnetic susceptibility, and the remainder was the hyperfine shift.

[2] = In vitro ^23Na-NMR, two-compartment coaxial cylinder tube (^23Na shiftability); format: physicochemical
Text: The goal of these studies was to separate the total Na^+ signal (Na^+T) into distinct signals for blood (Na^+b), interstitial (Na^+e), and intracellular (Na^+i) pools (FIG. 1). The shifting mechanism induced by exogenous TmDOTP^5− and endogenous biological factors on the ^23Na chemical shift in vitro is depicted in FIGS. 1C-1G. A two-compartment coaxial cylinder NMR tube setup in vitro was used to mimic Na^+ in interstitial/intracellular pools. The inner (smaller) and outer (larger) compartments both contained 150 mM NaCl while the latter also contained TmDOTP^5− at various concentrations. The setup was subjected to several different pH and temperature conditions. The inner compartment, which lacked TmDOTP^5− to represent the intracellular space in vivo, produced a small but unshifted ^23Na peak at 0 ppm. The larger ^23Na peak was shifted downfield by TmDOTP^5−, with the difference in peak integrals stemming from different compartment volumes.
The ^23Na shiftability for TmDOTP^5− s[paraCA^n−]=[…] was 11.1×larger than the shiftability for pH (spH=0.25 ppm/pH unit) and 92.3×larger than the shiftability for temperature (sT=0.03 ppm/° C.). This means that addition of 1.1 mM TmDOTP^5− would induce a ˜3 ppm shift in the ^23Na peak. Conversely, a maximal change of 0.4 in pH units, which is observed between normal and tumor tissues, would induce only a ˜0.1 ppm ^23Na shift. A similar ^23Na shift by temperature would require a 3.3° C. change, which is unlikely in vivo. Based on the pH and temperature ranges observed in vivo (including tumors), the effect from [TmDOTP^5−] dominates the ^23Na chemical shift by 95%. Therefore, [TmDOTP^5−] is several orders of magnitude more sensitive in shifting the ^23Na resonance than typical in vivo factors. Furthermore, the ^23Na shiftability arising from [TmDOTP^5−] and pH/temperature effects is much larger than T2 broadening from TmDOTP^5− (FIG. 1C). […] (FIGS. 1D-1E). However, for in vivo scenarios the ranges shown for pH (2 full pH units) and temperature (15° C. interval) are overestimated, and where [Na^+] far exceeds [TmDOTP^5−] based on prior experiments. In blood and interstitial spaces, [Na^+] is ˜30-100×greater than [TmDOTP^5−].
In vitro experiments were performed using a 2-compartment coaxial cylindrical 7-inch NMR tube setup from WilmadLabGlass (Vineland, NJ, USA). One compartment contained 150 mM NaCl and the other contained the same but with varying amounts of TmDOTP^5− (1-10 mM) and 10% v/v ^2H2O to lock the spectrometer frequency using the ^2H2O signal. NaCl and ^2H2O were purchased from Sigma-Aldrich (St. Louis, MO, USA), and TmDOTP^5− was purchased as the sodium salt Na5TmDOTP from Macrocyclics (Plano, TX, USA). The 5-mm opening of the NMR tube permitted an insert (the inner compartment) whose 50-mm-long tip had inner and outer diameters of 1.258 and 2.020 mm, respectively. The outer-to-inner volume ratio between the two compartments was 8.6. The geometry of the setup allowed 645 μL total in the outer compartment to fill around the tip. Each solution was pH-adjusted using HCl or KOH to give 5 different pH values.
^23Na-NMR spectra were collected on a Bruker Avance III HD 500 MHz vertical-bore spectrometer (Bruker, Billerica, MA, USA) interfaced with Bruker TopSpin v2.1 software. A Bruker 500 MHz TBO liquid broadband probe with z-gradient was used in all frequencies, and an inner coil was used to detect X-nuclei. A single ^23Na square pulse (50 μs) was used to globally excite the volume of interest (repetition time TR=275 ms) collecting 2048 free induction decay (FID) points in the time domain with an acquisition time taq=38.9 ms, averaged 4096 times. Each set of scans was repeated at a series of temperatures: 27, 30, 34, 37, and 40° C. Spectra were analyzed using 10 Hz line broadening (for improved delineation of major peaks and reduction of baseline noise) and manual zeroth- and first-order phasing. […]

[3] = doses presently being used for preclinical studies; cited from earlier work
[4] = cited from earlier work
[5] = 2 mM TmDOTP^5− with 2 mM Ca^2+, 2 mM Mg^2+ and 10 mM K^+ (all)

For `O=P([O-])([O-])CN1CCN(CP(=O)([O-])[O-])CCN(CP(=O)([O-])[O-])CCN(CP(=O)([O-])[O-])CC1.[Na+].[Na+].[Na+].[Na+].[Na+].[Tm+3]` [TmDOTP^5−, sodium thulium (III) 1,4,7,10-tetraazacyclododecane-1,4,7,10-tetrakis(methylenephosphonate)], the “change in ^23Na chemical shift in the presence of all competing cations” value ([1]; 2 mM TmDOTP^5−, alone vs all) was 3%, the “change in ^23Na linewidth in the presence of all competing cations” value ([1]; 2 mM TmDOTP^5−, alone vs all) was 6% and the “^23Na chemical shift” value ([1]; 2 mM TmDOTP^5− alone) was 2.433 ppm. The “^23Na linewidth” value ([1]; 2 mM TmDOTP^5− alone) was 0.2433 ppm, the “^23Na chemical shift” value [1, 5] was 2.352 ppm and the “^23Na linewidth” value [1, 5] was 0.2285 ppm. The “changes in ^23Na chemical shift and linewidth by cationic competition” value ([1]; typical in vivo concentrations of Ca^2+, Mg^2+, K^+) was “negligible changes”, the “^23Na shifts caused by in vivo agent concentrations” value ([2]; 1-2 mM TmDOTP^5−) was 2.8-5.5 ppm and the “shift in the ^23Na peak induced by addition of agent” value ([2]; addition of 1.1 mM TmDOTP^5−) was about 3 ppm. The “^23Na shiftability for pH (spH)” value ([2]; in vitro, 150 mM NaCl with TmDOTP^5−) was 0.25 ppm/pH unit, the “^23Na shiftability for temperature (sT)” value ([2]; in vitro, 150 mM NaCl with TmDOTP^5−, 27-40° C.) was 0.03 ppm/° C and the “^23Na shift variation caused by pH” value ([2]; maximal change of 0.4 pH units between normal and tumor tissue) was about 0.1 ppm. For the same compound, the “shiftability for TmDOTP^5− relative to shiftability for pH” value ([2]; ratio) was 11.1 ×, the “shiftability for TmDOTP^5− relative to shiftability for temperature” value ([2]; ratio) was 92.3 × and the “^23Na shift variation caused by temperature” value ([2]; temperature difference ~0.5° C.) was 0.015 ppm. The “share of the ^23Na chemical shift dominated by [TmDOTP^5−] effect” value ([2]; versus pH and temperature ranges observed in vivo) was 95% and 96-98%, the toxicity [3] was “non-toxic” and the “TmDOTP^5− in the cortex and subcortex” value ([4]; infusion protocol with probenecid, without renal ligation) was about 0.1 μmol TmDOTP^5−/g BW. For the same compound, the “in vivo concentrations in blood and interstitial spaces” value ([4]; rat, in vivo) was 1 to 2 mM.
